From patent US6492365B1, “Microsomal triglyceride transfer protein” (Bristol-Myers Squibb Company, priority 1992, dated 2002) come the findings set out here.

This assay deals with T1, bovine MTP (Bos taurus, UniProt P55156).
T1 construct: with about 50-200 ng purified MTP in the well of a 96-well plate; from tissue; host or cells: bovine liver
T1 sequence (P55156 12-887): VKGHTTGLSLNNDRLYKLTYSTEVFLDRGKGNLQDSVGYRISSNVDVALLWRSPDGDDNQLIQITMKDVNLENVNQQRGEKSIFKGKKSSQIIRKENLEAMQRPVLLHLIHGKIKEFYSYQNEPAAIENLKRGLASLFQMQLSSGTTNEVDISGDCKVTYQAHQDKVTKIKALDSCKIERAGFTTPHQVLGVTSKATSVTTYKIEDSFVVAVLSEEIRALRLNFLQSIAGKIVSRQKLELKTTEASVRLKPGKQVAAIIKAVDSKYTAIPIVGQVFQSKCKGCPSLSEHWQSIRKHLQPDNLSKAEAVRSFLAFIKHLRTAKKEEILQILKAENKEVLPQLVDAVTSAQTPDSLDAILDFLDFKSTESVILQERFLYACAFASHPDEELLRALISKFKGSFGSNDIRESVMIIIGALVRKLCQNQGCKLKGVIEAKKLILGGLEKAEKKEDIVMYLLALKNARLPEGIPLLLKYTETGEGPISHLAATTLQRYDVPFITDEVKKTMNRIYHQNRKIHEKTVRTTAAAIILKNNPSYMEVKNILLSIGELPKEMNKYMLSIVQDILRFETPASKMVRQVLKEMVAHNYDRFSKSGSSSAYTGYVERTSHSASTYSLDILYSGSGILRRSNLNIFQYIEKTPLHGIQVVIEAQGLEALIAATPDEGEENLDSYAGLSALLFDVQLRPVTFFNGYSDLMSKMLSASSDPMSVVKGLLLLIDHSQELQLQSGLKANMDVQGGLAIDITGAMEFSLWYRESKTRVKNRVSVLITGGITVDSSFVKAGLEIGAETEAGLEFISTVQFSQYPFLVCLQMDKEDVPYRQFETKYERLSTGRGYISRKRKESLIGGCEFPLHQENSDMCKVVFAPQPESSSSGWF
T1 sequence (P05307 21-510 partner): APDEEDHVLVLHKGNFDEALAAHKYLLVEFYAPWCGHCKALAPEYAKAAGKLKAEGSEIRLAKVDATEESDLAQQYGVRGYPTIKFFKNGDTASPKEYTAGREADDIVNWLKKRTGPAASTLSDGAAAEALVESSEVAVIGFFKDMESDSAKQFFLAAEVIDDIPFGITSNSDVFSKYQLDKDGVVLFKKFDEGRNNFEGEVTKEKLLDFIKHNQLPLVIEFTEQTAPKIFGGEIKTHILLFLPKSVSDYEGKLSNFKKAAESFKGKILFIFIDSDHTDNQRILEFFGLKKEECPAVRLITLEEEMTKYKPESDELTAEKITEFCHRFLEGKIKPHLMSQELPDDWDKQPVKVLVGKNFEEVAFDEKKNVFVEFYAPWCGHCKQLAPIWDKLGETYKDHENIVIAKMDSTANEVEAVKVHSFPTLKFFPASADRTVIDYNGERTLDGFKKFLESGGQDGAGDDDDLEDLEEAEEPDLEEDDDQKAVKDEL
The assay can be described thus: MTP-catalyzed transport of 14C-CE from donor SUV to acceptor SUV. The format is biochemical. As to the method: To measure the effect of compound A on bovine MTP-catalyzed transport of CE or PC between membranes, the lipid transfer assay which measures TG transfer between SUV was modified. The composition of the donor vesicles was the same, except 0.25 mol% ^14C-CE or ^14C-PC replaced the labeled TG. The composition of the acceptor vesicles were the same, except labeled PC and unlabeled TG were not included. Following precipitation of donor vesicles, the percentage of lipid transfer was calculated by comparing the ^14C-CE or -PC in the acceptor vesicles in the supernatant following a transfer reaction to the total ^14C-CE or -PC in the assay. The labeled lipid in the supernatant in the absence of MTP was subtracted from the labeled lipid in the presence MTP to calculate the MTP-catalyzed lipid transfer from donor SUV to acceptor SUV. The remainder of the assay was essentially as described previously.

Counter-ions that a name gives are not always drawn.

For the compound `O=C1c2ccccc2CN1C1CCN(CCC(c2ccccc2)c2ccccc2)CC1` [compound A, 2-[1-(3,3-diphenylpropyl)-4-piperdinyl]-2,3-dihydro-3-oxo-1H-isoindole hydrochloride], where the note is “at concentrations that inhibited approximately 40% of PC transfer”, the “decrease of CE transfer” value is reported as “more than 80%”. Further, the “inhibition of CE transfer” value (result in words) was “comparable to its inhibition of TG transfer”.
